Data taken from publication PMC8213057, “Targeting ALK2: An Open Science Approach to Developing Therapeutics for the Treatment of Diffuse Intrinsic Pontine Glioma” (Journal of Medicinal Chemistry, 2020).
Where “and” joins values, the source holds several entries; their conditions need not be identical. Identical values can stand only once.

Experiments:
CDK9/cyclin K = target: T1, CDK9/cyclin K (Homo sapiens, UniProt P50750); test: 375-member kinase panel; format: biochemical; details: Run 1, Run 2; for % enzyme activity: 1 μM; for remaining activity at 1 µM: read-out: % enzyme activity, 1 μM
T1 construct: purchased Reaction Biology Corporation
T1 sequence (P50750 whole entry): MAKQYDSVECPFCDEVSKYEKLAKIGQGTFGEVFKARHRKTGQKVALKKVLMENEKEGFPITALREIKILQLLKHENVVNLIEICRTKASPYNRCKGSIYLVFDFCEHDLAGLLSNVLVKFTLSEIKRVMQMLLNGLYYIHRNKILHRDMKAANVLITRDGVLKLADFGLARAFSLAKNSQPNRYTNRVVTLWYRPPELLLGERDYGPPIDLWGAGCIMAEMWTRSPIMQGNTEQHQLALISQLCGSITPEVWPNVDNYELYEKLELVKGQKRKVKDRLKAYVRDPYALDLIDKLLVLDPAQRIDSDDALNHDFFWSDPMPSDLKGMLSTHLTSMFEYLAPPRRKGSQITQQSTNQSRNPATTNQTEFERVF
T1 sequence (O75909 whole entry partner): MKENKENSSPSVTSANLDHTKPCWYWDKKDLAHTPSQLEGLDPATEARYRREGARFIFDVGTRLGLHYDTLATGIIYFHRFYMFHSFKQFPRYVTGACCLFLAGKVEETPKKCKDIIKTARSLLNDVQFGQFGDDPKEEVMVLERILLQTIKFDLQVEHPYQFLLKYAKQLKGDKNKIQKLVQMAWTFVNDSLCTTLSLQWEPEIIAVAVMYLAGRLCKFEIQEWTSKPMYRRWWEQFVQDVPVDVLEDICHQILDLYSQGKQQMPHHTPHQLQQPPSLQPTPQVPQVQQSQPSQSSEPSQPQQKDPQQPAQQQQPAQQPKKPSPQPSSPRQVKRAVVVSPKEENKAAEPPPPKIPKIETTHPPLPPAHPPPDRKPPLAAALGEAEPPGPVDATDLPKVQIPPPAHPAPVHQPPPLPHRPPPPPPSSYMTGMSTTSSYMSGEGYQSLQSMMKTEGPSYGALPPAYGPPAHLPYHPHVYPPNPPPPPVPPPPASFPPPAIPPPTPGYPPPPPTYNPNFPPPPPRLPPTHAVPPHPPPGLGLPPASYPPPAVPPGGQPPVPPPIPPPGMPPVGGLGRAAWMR

CK1d = CK1d (Homo sapiens, UniProt P48730); details: 1 μM; Run 1, Run 2
CK1G3 = CK1G3 (Homo sapiens, UniProt Q9Y6M4); details: 1 μM; Run 1, Run 2
ERK2/MAPK1 = ERK2/MAPK1 (Homo sapiens, UniProt P28482); details: 1 μM; Run 1, Run 2
Chain of ERK2/MAPK1 (P28482 whole entry): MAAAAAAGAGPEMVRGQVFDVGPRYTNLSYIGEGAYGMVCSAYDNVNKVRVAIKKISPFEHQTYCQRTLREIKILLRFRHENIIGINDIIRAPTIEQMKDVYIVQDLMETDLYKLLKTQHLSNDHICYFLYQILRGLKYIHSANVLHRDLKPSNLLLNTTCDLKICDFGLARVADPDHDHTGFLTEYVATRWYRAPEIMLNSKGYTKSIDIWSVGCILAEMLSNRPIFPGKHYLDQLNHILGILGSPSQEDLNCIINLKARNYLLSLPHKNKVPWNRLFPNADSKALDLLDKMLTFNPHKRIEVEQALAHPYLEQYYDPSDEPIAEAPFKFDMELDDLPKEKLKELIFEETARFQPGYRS

JNK2 = JNK2 (Homo sapiens, UniProt P45984); details: 1 μM; Run 1, Run 2
MLK1/MAP3K9 = MLK1/MAP3K9 (Homo sapiens, UniProt P80192); details: 1 μM; Run 1, Run 2
Chain of MLK1/MAP3K9 (P80192 whole entry): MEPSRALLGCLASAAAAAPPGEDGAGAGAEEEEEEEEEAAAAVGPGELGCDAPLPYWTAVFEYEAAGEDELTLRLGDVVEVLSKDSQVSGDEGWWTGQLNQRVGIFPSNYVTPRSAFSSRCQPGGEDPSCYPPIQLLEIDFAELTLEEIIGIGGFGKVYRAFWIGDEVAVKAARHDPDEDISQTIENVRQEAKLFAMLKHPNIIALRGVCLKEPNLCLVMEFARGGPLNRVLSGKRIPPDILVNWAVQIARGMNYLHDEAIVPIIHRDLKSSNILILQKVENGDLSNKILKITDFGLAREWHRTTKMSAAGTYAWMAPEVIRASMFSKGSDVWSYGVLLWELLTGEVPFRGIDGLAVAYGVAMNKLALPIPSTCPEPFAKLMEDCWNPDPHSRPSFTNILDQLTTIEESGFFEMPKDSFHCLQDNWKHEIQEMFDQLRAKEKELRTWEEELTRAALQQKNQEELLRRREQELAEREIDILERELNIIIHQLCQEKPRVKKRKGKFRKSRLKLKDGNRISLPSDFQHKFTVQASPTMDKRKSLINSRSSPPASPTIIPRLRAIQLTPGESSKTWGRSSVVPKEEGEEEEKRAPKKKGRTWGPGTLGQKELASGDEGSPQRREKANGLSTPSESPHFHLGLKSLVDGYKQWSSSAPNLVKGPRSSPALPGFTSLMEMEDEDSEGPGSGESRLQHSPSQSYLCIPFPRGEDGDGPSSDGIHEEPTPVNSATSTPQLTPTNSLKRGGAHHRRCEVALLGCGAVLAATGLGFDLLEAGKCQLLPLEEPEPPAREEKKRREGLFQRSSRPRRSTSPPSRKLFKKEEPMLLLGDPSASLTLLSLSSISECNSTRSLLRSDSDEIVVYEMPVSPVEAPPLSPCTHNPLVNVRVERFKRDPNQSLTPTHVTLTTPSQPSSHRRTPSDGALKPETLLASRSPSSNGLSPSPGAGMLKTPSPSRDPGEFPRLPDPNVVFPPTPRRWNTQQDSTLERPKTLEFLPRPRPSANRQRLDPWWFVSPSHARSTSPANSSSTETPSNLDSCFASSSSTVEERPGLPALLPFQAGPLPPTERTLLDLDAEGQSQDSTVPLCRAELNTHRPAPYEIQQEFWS

WEE1 = WEE1 (Homo sapiens, UniProt P30291); details: 1 μM; Run 1, Run 2
AURORA B = AURORA B (Homo sapiens, UniProt Q96GD4); test: biochemical; details: read-out: % enzyme activity, 1 μM; Run 1, Run 2
Chain of AURORA B (Q96GD4 whole entry): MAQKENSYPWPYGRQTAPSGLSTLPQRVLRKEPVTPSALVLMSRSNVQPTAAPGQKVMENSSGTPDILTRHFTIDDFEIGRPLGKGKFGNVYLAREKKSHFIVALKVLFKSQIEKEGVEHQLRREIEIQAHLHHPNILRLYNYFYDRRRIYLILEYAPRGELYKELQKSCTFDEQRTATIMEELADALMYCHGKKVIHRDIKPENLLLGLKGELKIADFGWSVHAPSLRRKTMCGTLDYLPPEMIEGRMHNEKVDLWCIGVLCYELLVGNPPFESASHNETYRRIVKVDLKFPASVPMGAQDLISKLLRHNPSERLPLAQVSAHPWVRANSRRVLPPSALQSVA

BTK = BTK (Homo sapiens, UniProt Q06187); test: biochemical; details: read-out: % enzyme activity, 1 μM; Run 1, Run 2
Chain of BTK (Q06187 whole entry): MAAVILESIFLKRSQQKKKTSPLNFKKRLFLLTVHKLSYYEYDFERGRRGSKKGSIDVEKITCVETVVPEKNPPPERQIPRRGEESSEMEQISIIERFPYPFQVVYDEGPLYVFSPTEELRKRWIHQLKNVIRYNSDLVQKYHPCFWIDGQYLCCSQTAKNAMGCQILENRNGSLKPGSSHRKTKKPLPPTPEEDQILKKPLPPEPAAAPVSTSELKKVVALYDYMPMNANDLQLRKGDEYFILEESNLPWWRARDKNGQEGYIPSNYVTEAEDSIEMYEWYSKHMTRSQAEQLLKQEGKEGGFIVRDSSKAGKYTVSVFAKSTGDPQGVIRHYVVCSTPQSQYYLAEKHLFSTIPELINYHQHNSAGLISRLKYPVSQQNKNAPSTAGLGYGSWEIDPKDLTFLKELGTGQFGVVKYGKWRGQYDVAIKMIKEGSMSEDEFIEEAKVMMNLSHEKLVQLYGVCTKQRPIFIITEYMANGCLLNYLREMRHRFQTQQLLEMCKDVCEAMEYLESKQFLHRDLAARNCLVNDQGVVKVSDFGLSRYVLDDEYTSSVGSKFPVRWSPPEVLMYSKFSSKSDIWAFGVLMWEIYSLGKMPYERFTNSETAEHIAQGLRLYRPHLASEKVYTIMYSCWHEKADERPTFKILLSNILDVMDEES

CK1epsilon = CK1epsilon (Homo sapiens, UniProt P49674); test: biochemical; details: read-out: % enzyme activity, 1 μM; Run 1, Run 2
EPHA2 = EPHA2 (Homo sapiens, UniProt P29317); test: biochemical; details: read-out: % enzyme activity, 1 μM; Run 1, Run 2
GRK6 = GRK6 (Homo sapiens, UniProt P43250); test: biochemical; details: read-out: % enzyme activity, 1 μM; Run 1, Run 2
GRK7 = target: T2, GRK7 (Homo sapiens, UniProt Q8WTQ7); test: biochemical; details: read-out: % enzyme activity, 1 μM; Run 1, Run 2
T2 sequence (Q8WTQ7 1-553): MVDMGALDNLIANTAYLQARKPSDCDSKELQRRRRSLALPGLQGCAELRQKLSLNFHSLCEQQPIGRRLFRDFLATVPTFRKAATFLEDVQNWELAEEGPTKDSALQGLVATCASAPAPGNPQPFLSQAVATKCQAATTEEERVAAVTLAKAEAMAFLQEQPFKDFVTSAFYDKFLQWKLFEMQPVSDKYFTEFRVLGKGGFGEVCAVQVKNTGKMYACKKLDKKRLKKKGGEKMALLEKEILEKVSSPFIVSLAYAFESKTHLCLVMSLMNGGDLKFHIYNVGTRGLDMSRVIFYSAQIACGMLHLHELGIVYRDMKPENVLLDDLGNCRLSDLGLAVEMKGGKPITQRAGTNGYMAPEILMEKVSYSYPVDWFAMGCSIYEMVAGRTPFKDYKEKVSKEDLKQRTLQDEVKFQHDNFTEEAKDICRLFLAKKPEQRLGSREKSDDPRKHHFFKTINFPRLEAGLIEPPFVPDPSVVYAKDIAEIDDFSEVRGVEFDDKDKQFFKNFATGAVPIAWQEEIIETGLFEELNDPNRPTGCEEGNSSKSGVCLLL

MAST3 = MAST3 (Homo sapiens, UniProt O60307); test: biochemical; details: read-out: % enzyme activity, 1 μM; Run 1, Run 2
Chain of MAST3 (O60307 whole entry): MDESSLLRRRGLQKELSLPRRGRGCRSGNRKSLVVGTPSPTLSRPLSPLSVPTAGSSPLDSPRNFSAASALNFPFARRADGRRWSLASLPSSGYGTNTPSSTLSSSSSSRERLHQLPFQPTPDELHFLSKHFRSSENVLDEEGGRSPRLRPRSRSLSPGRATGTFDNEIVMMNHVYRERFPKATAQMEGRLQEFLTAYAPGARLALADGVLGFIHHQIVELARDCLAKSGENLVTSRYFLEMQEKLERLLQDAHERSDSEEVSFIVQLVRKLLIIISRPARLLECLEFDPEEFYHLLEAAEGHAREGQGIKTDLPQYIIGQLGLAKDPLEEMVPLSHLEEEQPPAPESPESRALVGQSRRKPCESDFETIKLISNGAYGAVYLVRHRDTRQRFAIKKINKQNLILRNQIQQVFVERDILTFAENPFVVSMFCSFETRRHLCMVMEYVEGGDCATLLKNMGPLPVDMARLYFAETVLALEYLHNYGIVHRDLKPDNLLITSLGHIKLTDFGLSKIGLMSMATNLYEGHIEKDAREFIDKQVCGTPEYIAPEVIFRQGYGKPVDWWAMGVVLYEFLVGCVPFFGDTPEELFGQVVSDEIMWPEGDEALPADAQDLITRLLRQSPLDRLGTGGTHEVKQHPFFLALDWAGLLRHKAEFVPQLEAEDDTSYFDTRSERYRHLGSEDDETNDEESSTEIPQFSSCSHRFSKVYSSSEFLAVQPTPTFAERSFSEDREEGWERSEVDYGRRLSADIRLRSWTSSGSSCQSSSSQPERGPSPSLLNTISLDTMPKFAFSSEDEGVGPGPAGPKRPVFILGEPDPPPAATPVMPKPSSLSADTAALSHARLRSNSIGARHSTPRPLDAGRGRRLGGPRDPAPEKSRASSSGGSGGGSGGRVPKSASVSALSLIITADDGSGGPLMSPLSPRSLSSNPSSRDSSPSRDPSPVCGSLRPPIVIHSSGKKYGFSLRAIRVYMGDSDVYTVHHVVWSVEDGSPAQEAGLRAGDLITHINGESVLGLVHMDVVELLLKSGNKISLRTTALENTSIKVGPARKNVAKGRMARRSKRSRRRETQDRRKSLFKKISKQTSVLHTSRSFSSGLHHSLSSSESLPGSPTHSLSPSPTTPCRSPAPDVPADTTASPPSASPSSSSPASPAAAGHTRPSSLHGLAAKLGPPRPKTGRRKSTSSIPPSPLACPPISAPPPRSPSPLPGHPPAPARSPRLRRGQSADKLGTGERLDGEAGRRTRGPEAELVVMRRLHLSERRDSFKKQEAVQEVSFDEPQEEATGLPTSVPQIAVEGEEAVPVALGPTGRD

MEKK6 = target: T3, MEKK6 (Homo sapiens, UniProt O95382); test: biochemical; details: read-out: % enzyme activity, 1 μM; Run 1, Run 2
T3 sequence (O95382 1-1288): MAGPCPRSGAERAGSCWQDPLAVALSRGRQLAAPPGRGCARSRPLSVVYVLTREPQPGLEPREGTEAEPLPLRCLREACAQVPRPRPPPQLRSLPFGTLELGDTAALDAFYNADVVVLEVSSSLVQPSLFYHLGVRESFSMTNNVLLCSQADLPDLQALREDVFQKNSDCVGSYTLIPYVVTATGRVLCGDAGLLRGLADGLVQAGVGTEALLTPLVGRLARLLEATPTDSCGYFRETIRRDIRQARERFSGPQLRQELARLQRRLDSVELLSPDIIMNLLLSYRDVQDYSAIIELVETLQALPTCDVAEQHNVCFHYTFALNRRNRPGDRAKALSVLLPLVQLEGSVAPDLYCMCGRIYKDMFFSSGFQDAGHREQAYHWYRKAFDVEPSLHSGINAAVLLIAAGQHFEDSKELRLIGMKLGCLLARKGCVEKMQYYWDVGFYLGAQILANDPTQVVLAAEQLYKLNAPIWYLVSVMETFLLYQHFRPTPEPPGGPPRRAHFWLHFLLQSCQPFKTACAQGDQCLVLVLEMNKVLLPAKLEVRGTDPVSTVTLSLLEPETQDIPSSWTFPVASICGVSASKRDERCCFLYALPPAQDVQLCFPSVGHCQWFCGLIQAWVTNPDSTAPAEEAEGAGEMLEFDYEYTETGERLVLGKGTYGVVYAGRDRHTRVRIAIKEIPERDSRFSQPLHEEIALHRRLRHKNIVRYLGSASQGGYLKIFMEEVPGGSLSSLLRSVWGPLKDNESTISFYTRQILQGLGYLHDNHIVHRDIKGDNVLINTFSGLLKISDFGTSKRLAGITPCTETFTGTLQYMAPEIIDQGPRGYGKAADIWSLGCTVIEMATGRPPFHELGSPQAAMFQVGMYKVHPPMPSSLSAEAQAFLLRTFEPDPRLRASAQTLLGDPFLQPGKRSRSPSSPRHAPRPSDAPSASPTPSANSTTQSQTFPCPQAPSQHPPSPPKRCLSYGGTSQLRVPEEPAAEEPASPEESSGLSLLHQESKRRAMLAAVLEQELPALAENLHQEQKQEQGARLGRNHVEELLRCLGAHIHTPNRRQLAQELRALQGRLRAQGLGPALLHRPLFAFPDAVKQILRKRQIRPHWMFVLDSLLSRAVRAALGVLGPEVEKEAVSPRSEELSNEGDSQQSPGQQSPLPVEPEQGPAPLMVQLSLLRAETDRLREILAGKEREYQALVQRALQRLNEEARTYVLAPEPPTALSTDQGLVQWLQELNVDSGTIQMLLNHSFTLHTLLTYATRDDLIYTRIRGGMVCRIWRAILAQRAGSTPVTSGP

MST4 = MST4 (Homo sapiens, UniProt Q9P289); test: biochemical; details: read-out: % enzyme activity, 1 μM; Run 1, Run 2
PAK3 = PAK3 (Homo sapiens, UniProt O75914); test: biochemical; details: read-out: % enzyme activity, 1 μM; Run 1, Run 2
PKCd = PKCd (Homo sapiens, UniProt Q05655); test: biochemical; details: read-out: % enzyme activity, 1 μM; Run 1, Run 2

**Q.** With `COc1cc(-c2cncc(-c3ccc(N4CCN(C)CC4)cc3)c2C)cc(F)c1C(N)=O` [Compound 26a, 2-Fluoro-6-methoxy-4-(4-methyl-5-(4-(4-methylpiperazin-1-yl)phenyl)pyridin-3-yl)benzamide] as the compound, how does the % enzyme activity at 1 μM (ALK4/ACVR1B) read?
**A.** 68.8%

**Q.** What about the “% enzyme activity” value (CDK9/cyclin K) of the same compound?
**A.** 96.95%

**Q.** What about the remaining activity at 1 µM (CDK9/cyclin K) of the same compound?
**A.** 97.5%

**Q.** What about the “% enzyme activity” value (CK1d) of the same compound?
**A.** 94.27%

**Q.** What about the “% enzyme activity” value (CK1G3) of the same compound?
**A.** 64.87%

**Q.** And the “% enzyme activity” value (ERK2/MAPK1)?
**A.** 91.58%

**Q.** And the “% enzyme activity” value (JNK2)?
**A.** 91.99%

**Q.** What about the “% enzyme activity” value (MLK1/MAP3K9) of the same compound?
**A.** 110.44%

**Q.** What about the “% enzyme activity” value (WEE1) of the same compound?
**A.** 104.15%

**Q.** What about the remaining activity at 1 µM (AURORA B) of the same compound?
**A.** 102%

**Q.** And the remaining activity at 1 µM (BTK)?
**A.** 95.3%

**Q.** And the remaining activity at 1 µM (CK1epsilon)?
**A.** 93.8%

**Q.** And the remaining activity at 1 µM (EPHA2)?
**A.** 103%

**Q.** What about the remaining activity at 1 µM (GRK6) of the same compound?
**A.** 109%

**Q.** And the remaining activity at 1 µM (GRK7)?
**A.** 95.1%

**Q.** What about the remaining activity at 1 µM (MAST3) of the same compound?
**A.** 94.7%

**Q.** And the remaining activity at 1 µM (MEKK6)?
**A.** 98.3%

**Q.** What about the remaining activity at 1 µM (MST4) of the same compound?
**A.** 86.9%

**Q.** What about the remaining activity at 1 µM (PAK3) of the same compound?
**A.** 89.5%

**Q.** And the remaining activity at 1 µM (PKCd)?
**A.** 99%

**Q.** `COc1cc(-c2cncc(-c3ccc(N4C[C@@H](C)N(C)[C@@H](C)C4)cc3)c2C)cc(F)c1C(N)=O` [Compound 26c, 2-Fluoro-6-methoxy-4-(4-methyl-5-(4-((3R,5S)-3,4,5-trimethylpiperazin-1-yl)phenyl)pyridin-3-yl)benzamide] was tested. Which % enzyme activity at 1 μM (ALK4/ACVR1B) did it give?
**A.** 82.4% and 81.7%

**Q.** And the “% enzyme activity” value (CDK9/cyclin K)?
**A.** 102.30%

**Q.** And the remaining activity at 1 µM (CDK9/cyclin K)?
**A.** 106%

**Q.** What about the “% enzyme activity” value (CK1d) of the same compound?
**A.** 108.05%

**Q.** What about the “% enzyme activity” value (CK1G3) of the same compound?
**A.** 77.64%

**Q.** And the “% enzyme activity” value (ERK2/MAPK1)?
**A.** 87.49%

**Q.** What about the “% enzyme activity” value (JNK2) of the same compound?
**A.** 94.14%

**Q.** What about the “% enzyme activity” value (MLK1/MAP3K9) of the same compound?
**A.** 98.95%

**Q.** What about the “% enzyme activity” value (WEE1) of the same compound?
**A.** 99.73%

**Q.** What about the remaining activity at 1 µM (AURORA B) of the same compound?
**A.** 105%

**Q.** What about the remaining activity at 1 µM (BTK) of the same compound?
**A.** 96.5%

**Q.** What about the remaining activity at 1 µM (CK1epsilon) of the same compound?
**A.** 94.7%

**Q.** And the remaining activity at 1 µM (EPHA2)?
**A.** 108%

**Q.** What about the remaining activity at 1 µM (GRK6) of the same compound?
**A.** 97.1%

**Q.** And the remaining activity at 1 µM (GRK7)?
**A.** 91.8%

**Q.** What about the remaining activity at 1 µM (MAST3) of the same compound?
**A.** 95.5%

**Q.** And the remaining activity at 1 µM (MEKK6)?
**A.** 95.9%

**Q.** And the remaining activity at 1 µM (MST4)?
**A.** 95%

**Q.** What about the remaining activity at 1 µM (PAK3) of the same compound?
**A.** 125%

**Q.** And the remaining activity at 1 µM (PKCd)?
**A.** 101%
